Results from patent US10000771B2, “Nuclear targeting sequences” (Yeda Research and Development Co. Ltd., priority 2007, dated 2018).
Ends that are not written are not given here. 2GFP = dimer of GFP proteins

How the values were obtained:
Type in all cases: cell-based
[1] = system: COS7 cells; assay: Subcellular fractionation of 2GFP chimeras
Procedure: FIG. 9A is an autoradiograph illustrating the subcellular fractionation of transfected SPS, APA, and EPE peptides fused to a 2GFP in COS7 cells. Western blot analysis of aliquots of the fractions were stained with anti GFP Ab to detect the different chimaras, and with anti tubulin and anti c-Jun Abs as markers for the cytoplasmic and nuclear fractions respectively.
(§1) Cellular Fractionation: Transfected COS7 cells were starved (0.1% FBS) for 16 h, after which they were washed with ice-cold PBS, suspended in ice-cold buffer H, and centrifuged (12,000×g, 5 min). Then, the nuclear and cytosolic fractions were isolated as described [H. Rubinfeld, T. Hanoch, R. Seger, J. Biol. Chem. 274, 30349 (1999)]. Briefly, the pellets were suspended in 0.1% NP-40 followed by centrifugation (12,000×g, 5 min). The supernatant, containing the cytosolic fraction, was boiled in sample buffer. The pellet was suspended in extraction buffer (420 mM Nacl, 50 mM β-glycerophosphate, 0.5 mM Na3VO4, 1.5 mM MgCl2, 0.2 mM EDTA, 1 mM DTT, 25% glycerol), incubate on ice for 10 min, sonicated (50 W, 2×7 sec), and centrifuged (12,000×g, 5 min). The supernatant, containing the nuclear fraction, was subjected to Western blot.

[2] = system: CHO cells; assay: Fluorescence microscopy of 2GFP chimeras (subcellular localization); conditions: 24 hr post transfection, serum-starved
Procedure: FIGS. 8A-8H are photomicrographs illustrating that SPS, APA, and EPE peptides fused to a 2GFP chimera modify its subcellular localization. CHO cells were grown on cover slips and transfected with 19 amino acid from the kinase insert domain of ERK2 including the SPS region (GFP-SPS) fused to a 2GFP chimera and with the same chimeras with substitution of the Ser to Ala (GFP-APA) or substitution to Glu (GFP-EPE). Twenty-four hr later, the cells were serum-starved for 16 hr, fixed, stained with DAPI and visualized by a fluorescence microscope.
(§2) Immunofluorescence Microscopy. Cells were fixed (30 min in 3% paraformaldehyde in PBS or 10 min with ice-cold methanol), followed by 5-min permeabilization with 0.2% Triton X-100 in PBS (23° C.). The fixed cells were sequentially incubated with the appropriate Abs (45 min) followed by rhodamine-conjugated secondary Abs (45 min) and DAPI. Slides were visualized using a fluorescence microscope (Nikon, Japan) at 400× magnifications.
To validate the general importance of the SPS domain, a 19 amino acid sequence surroundings the SPS or the APA and EPE mutants was fused to a dimer of GFP proteins (2GFP). Cellular distribution of the chimeras was detected in CHO cells 24 hr post transfection of the GFP constructs.

[3] = system: endogenous ERKs; assay: Effect of 2GFP chimeras on nuclear translocation of endogenous ERKs; conditions: CHO cells overexpressing the chimera, TPA 250 nM, 15 min
Procedure: FIGS. 10A-10X illustrate the effects of the 2GFP chimeras on the nuclear translocation of endogenous ERKs. CHO cells overexpressing 2GFP, 2GFP-SPS, 2GFP-APA and 2GFP-EPE were serum starved and treated with or without TPA (250 nM, 15 min). Subsequently, the cells were fixed and stain with anti-ERK2 (C-14) Ab and with DAPI.
as §2

[4] = system: COS7 cells; assay: Subcellular fractionation of GFP-ERK2 constructs; conditions: 48 hr after transfection, serum-starved
Procedure: FIG. 6 is an autoradiograph illustrating the subcellular fractionation of WT-GFP-ERK2 (WT), APA-GFP-ERK2 (APA), or EPE-GFP-ERK2 (EPE). COS7 cells were grown in 10 cm plates and transfected with the above ERK2 constructs. Twenty-four hr after transfection the cells were serum-starved for 16 hr and subjected to cellular fractionation as described under materials and Methods. Western blot analysis of aliquots of the fractions were stained with anti GFP Ab to detect the ERK2 and its mutant, and with anti tubulin and anti c-Jun Abs as markers for the cytoplasmic and nuclear fractions respectively.
as §1, with “The supernatant, containing the nuclear fraction, was subjected to Western blot.” left out

[5] = system: CHO cells; assay: Fluorescence microscopy of ERK2 constructs (subcellular localization)
Procedure: FIGS. 1A-1R are photomicrographs illustrating the role of SPS in the non-regulated accumulation of ERK2 in the nucleus. CHO (FIGS. 1A-F and 1M-R) or COS7 cells (FIGS. 1G-L) were grown on cover slips and transfected with WT-ERK2, or the mutants 244-6A and Δ244-6. Twenty-four hr following transfection, the cells were serum-starved (16 hr), fixed, stained with DAPI and visualized using a fluorescent microscope.
FIGS. 2A-2X are photomicrographs illustrating the role of SPS in the stimulated nuclear translocation of ERK2. CHO cells were grown on cover slips and co-transfected with HA-MEK1 together with either WT-ERK2, 244-6A, or Δ244-6. Twenty-four hr after transfection, the cells were serum starved for 16 hours, treated with TPA (250 nM, 15 min), except in WT-10 where the cells were treated with 10 nM TPA for 15 min. After treatments the cells were fixed and stained with either anti-HA Ab or DAPI.
FIGS. 5A-5F are photomicrographs illustrating that mutating the Ser residues in the SPS to Glu induces the nuclear accumulation of ERK2. CHO cells were grown on cover slips and transfected with WT-GFP-ERK2 (WT), APA-GFP-ERK2 (APA), or EPE-GFP-ERK2 (EPE). […]
Immunofluorescence Microscopy. […] Slides were visualized using a fluorescence microscope (Nikon, Japan) at 400× magnifications. […]

[6] = system: TEY motif of ERK2; assay: TEY phosphorylation by Western blot with anti pTEY-ERK; conditions: COS7 cells, following EGF stimulation
Procedure: FIG. […] ERK2 phosphorylation was detected by Western blot analysis using anti-phosphoTEY-ERK (αpTEY), and anti ERK Abs (αgERK).
Western Blotting: Cell extract was collected as described above, and aliquots from each sample (20 μg) were separated by 10% SDS-PAGE followed by Western blotting with the appropriate antibodies. The blots were developed with alkaline phosphatase or horseradish peroxidase-conjugated anti-mouse’, anti-rabbit and anti-goat Fab Abs.

Substance: 2GFP-SPS: 2GFP with the 19 amino acid stretch containing the SPS of ERK2 (SEQ ID NO: 6) fused to its C terminus (2GFP-LDQLNHILGILGSPSQEDL)
- localized in the nucleus [1]: 15%
- cellular distribution [2]: localized throughout the cell
- inhibition of TPA-induced translocation of endogenous ERKs [3]: inhibited

Substance: WT-ERK2: wild-type ERK2 fused to GFP, prepared in pEGFP C1 [reference compound]
- localized in the nucleus [4]: about 75%
- localization upon TPA stimulation ([5]; CHO cells cotransfected with MEK1, TPA 250 nM): translocated into the nucleus upon TPA stimulation
- localization at equivalent TEY phosphorylation levels ([5]; CHO cells cotransfected with MEK1, TPA 10 nM for WT-ERK2 and 250 nM for the mutants): localized to the nucleus
- time of peak TEY phosphorylation [6]: 5 min
